Like-named read-outs stand apart in the source and are kept apart here. Marks after values point to notes of the source that are not given here.

For data set [1], the target named is T1, CYP2A13 (Homo sapiens, UniProt Q16696).
T1 construct: made in house
T1 sequence (Q16696 1-494): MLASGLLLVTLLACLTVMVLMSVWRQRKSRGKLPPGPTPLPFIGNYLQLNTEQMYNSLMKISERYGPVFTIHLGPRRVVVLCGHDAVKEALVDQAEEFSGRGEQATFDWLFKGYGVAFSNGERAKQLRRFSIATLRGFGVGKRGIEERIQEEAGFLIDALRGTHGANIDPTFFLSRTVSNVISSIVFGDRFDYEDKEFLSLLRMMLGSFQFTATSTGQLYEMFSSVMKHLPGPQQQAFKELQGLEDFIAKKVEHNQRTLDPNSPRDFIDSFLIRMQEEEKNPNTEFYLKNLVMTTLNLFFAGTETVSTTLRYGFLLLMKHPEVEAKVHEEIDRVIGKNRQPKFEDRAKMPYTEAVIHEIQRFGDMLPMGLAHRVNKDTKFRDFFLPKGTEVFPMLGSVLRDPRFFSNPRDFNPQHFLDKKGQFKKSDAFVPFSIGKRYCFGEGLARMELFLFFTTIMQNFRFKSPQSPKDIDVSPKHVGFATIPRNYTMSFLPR
As to the kind of experiment: Inhibition of CYP2A13-mediated nicotine metabolism. It counts as biochemical. Particulars: compound at IC50 value; nicotine 50 μM; 30 min; Supplemental Figure S2. The procedure: mixture with nicotine substrate (a final concentration of 50 μM) prior to initiation of each reaction with 50 μM NADPH at room temperature. Each reaction was terminated by addition of ice-cold acetronitrile at 30 min incubation and 50 pmol 7-hydroxycoumarin as internal standard was added. The reaction was centrifuged (12,000 rpm, 10 min, 4 °C) and 20 μl of each sample was analyzed on symmetry RP-C18 column (3.9×150 mm). Gradient condition was isocratic of 12% ACN: 2-propanol (7:3) in 10 mM potassium phosphate buffer (pH 7.4) at flow rate of 1 ml/min. The nicotine peak area in each reaction was compared with that of time zero. The enzyme activity was determined as percent substrate consumption over 30 min. The reactions were […]
(1 picture or pasted object on this page, not shown here)

Data set [2] addresses T1, CYP2A13. The experiment in a line: Inhibition of CYP2A13-mediated coumarin 7-hydroxylation, enzymatic reconstitution assay. The data set is classed as biochemical. How it is done:
Inhibitory effect of plant extracts, fractions, subfractions and constituents was determined by inhibition assay on CYP2A6- and CYP2A13-mediated coumarin 7-hydroxylation. The recombinant human CYP2A6, CYP2A13 and rat NADPH-dependent cytochrome P450 oxidoreductase (CYPOR) proteins were expressed, purified, according to the methods previously described. […] Rate of 7-hydroxycoumarin product formation was measured on spectrofluorometer (Shimadzu, Kyoto, Japan) at λex = 355 nm, λem = 460 nm. Inhibition effects were determined by incubation with extracts, fractions or purified compounds with coumarin substrate in the reaction mixture and calculated as per cent relative inhibition compared with vehicle control reaction[20] and IC50 values were calculated using GraphPad Prism 5 (GraphPad Software Inc., La Jolla, CA).
(§1) MBI requires NADPH and time to generate reactive intermediate as inhibitor and ultimately inactivates the enzyme. MBI was evaluated by pre-incubation with each test inhibitor in the reaction at different time periods (0, 10, 20 and 30 min) in the presence of NADPH for time-dependent assay, as described. The apparent inactivation constants, KI and Kinact, were obtained from double reciprocal plots of kobs versus inhibitor concentrations by linear regression analysis on GraphPad Prism 5. Methoxsalen was used as a control mechanism-based inhibitor for time- and NADPH-dependent inhibition assays.

Data set [3] has as its target T2, CYP2A6 (Homo sapiens, UniProt P11509).
T2 sequence (P11509 1-494): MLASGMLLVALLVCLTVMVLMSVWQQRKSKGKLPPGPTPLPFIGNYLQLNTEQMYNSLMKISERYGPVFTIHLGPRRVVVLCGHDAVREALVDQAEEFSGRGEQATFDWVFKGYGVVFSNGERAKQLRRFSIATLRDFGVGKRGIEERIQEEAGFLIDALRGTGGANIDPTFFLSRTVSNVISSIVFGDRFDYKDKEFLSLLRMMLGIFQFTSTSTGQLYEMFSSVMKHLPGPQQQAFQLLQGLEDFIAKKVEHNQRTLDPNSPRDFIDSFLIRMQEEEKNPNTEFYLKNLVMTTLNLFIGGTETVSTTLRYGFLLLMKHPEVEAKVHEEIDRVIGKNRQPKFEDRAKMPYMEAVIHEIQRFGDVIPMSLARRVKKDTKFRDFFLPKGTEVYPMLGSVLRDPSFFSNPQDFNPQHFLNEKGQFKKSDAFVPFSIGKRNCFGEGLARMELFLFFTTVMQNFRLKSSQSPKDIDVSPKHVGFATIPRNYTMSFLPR
Details: made in house. The settings on record: ref Prasopthum et al., 2015, cited from earlier work.

Data set [4] addresses T1, CYP2A13. The experiment in a line: Mechanism-based (time- and NADPH-dependent) inactivation of CYP2A13. It counts as biochemical. Particulars: pre-incubation 0-30 min with NADPH. The procedure:
as §1

In data set [5] the target is T2, CYP2A6. Also on record: made in house; method as in PMID 25857233. Particulars: cited from earlier work.
In data set [6] the target is T1, CYP2A13. The experiment in a line: Effects of trapping agents and dialysis on inactivation of CYP2A13. The data set is classed as biochemical. Particulars: CYP2A13 inhibition reaction mixture, probe coumarin, compound 10 µM. The procedure:
as §1
To explore whether inactivation of CYP2As by thiophenes 9–11 and of CYP2A13 by hirsutinolides 5-8 could be reversed, the removal of reversible inhibitory compounds by dialysis and addition of trapping agents (GSH, semicarbazide, catalase or potassium ferricyanide) in the inhibition reaction mixture were performed. […] Similarly, mechanism-based inactivation of both CYP2A6 and CYP2A13 by thiophenes 9–11 could not be reversed (Table 3).

For data set [7], the target named is T2, CYP2A6. Particulars: ref Prasopthum et al., 2015, cited from earlier work.

Broadly, the IC50 is the midpoint of a concentration-inhibition curve. A word on the Ki: it is the equilibrium dissociation constant of an inhibitor or competing ligand from its target. For orientation: kinact means the maximal first-order rate at which the target is inactivated. For `C/C=C(\C)C(=O)OC1CC(C)C2(O)CCC(C)(/C=C3/OC(=O)C(COC(C)=O)=C31)O2` (stereo not drawn) [Hirsutinolide 6, 8α-tigloyloxyhirsutinolide-13-O-acetate], in data set [1], the “inhibition of CYP2A13-mediated nicotine metabolism” value is “showed inhibition”. In addition, in data set [2], the “CYP2A13 Mode of inhibition” value was “Mixed type”. The IC50 in data set [2] (10-min pre-incubation in the presence of NADPH, read-out: IC50 CYP2A13 Pre-incubation) was 7.66 ± 0.98 µM; in data set [2] (coincubation, coumarin 2 µM, read-out: IC50 CYP2A13 Coincubation) it was 20.9 ± 1.46 µM; in data set [3] (10-min pre-incubation in the presence of NADPH, read-out: IC50 CYP2A6 Pre-incubation) it was 20.8 ± 1.1 µM; in data set [3] (coincubation, coumarin 2 µM, read-out: IC50 CYP2A6 Coincubation), 37.8 ± 3.5 µM. Also, the Ki in data set [2] (coumarin 0–40 µM) is 7.97 ± 0.78 µM; in data set [3] (coumarin 0–40 µM) it was 30.6 ± 1.5 µM. Further, in data set [3], the “CYP2A6 Mode of inhibition” value is “Mixed type^b”. For the same compound, the kinact in data set [4] was 0.001 s⁻¹. The KI (inactivation) is 3.6 ± 1.05 µM in data set [4] (read-out: CYP2A13 KI (inactivation constant)) and 15.4 ± 1.8 µM in data set [7] (read-out: CYP2A6 KI (inactivation constant)). For the same compound, the “inhibition of CYP2A6-mediated nicotine metabolism” value in data set [5] is recorded as “showed inhibition”. Also, the activity at 10 µM in data set [6] (read-out: Per cent remaining activity, 70 μM K3Fe(CN)6) amounted to 25.9 ± 1.87%; in data set [6] (read-out: Per cent remaining activity, 2 mM GSH), 33.6 ± 4.8%; in data set [6] (read-out: Per cent remaining activity, 5 mM semicarbazide), 25 ± 3.81%; in data set [6] (read-out: Per cent remaining activity, 2000 U catalase) it was 26.6 ± 3.86%; in data set [6] (read-out: Per cent remaining activity, Dialysis (+) NADPH), 22.8 ± 1.13%; in data set [6] (read-out: Per cent remaining activity, Dialysis (−) NADPH) it was 85.3 ± 4.98%. Further, in data set [6] (read-out: Per cent remaining activity, Pre-incubation), the activity at 10 µM amounted to 28.4 ± 2.92%. In data set [7], the “CYP2A6 Kinact” value is given as 0.03 ± 0.01^b.
